Reference: patent publication EP2608671B1, “COMPOUNDS FOR TREATMENT OF CANCER” (Gtx, Inc., priority 2010, dated 2012)
Read-outs that look alike come from different tables or passages of the source.

Legend:
[1] = tested on: LNCaP; assay: cells; conditions: Homo sapiens, 96 h, read-out: IC50 ± SEM (nM), LNCaP
[2] = tested on: DU 145; assay: cells; conditions: Homo sapiens, DU-145, 96 h
[3] = tested on: PC-3; assay: cells
Description: (§1) The only compounds which belong to the invention are the ones falling under the scope of formula (XI).
Cells were stained with SRB solution.
Cells. […] Cells between the third and fifth passages were used for experiments.
Cell growth inhibition studies. […] Cells were stained with sulphorhodamine B (SRB) solution.

[4] = tested on: MDA-MB-435; assay: SRB growth inhibition, sensitive parent melanoma line; format: cell-based; conditions: Homo sapiens, MDA-MB-435, read-out: IC50 ± SEM (nM) (n=3), MDA-MB-435; sensitive parent melanoma cell line
[5] = tested on: B16-F1; assay: SRB cell growth inhibition (cytotoxicity) assay; format: cell-based, mouse
Description: as §1

[6] = tested on: PPC-1; assay: cells; conditions: Homo sapiens, PPC-1, 96 h, read-out: IC50 ± SEM (nM), PPC-1
[7] = tested on: A375; assay: SRB cell growth inhibition (cytotoxicity) assay; format: cell-based, human
[8] = tested on: WM-164; assay: SRB cell growth inhibition (cytotoxicity) assay; format: cell-based, human
[9] = tested on: MDA-MB-435/LCC6MDR1; assay: SRB growth inhibition, multidrug-resistant melanoma line; format: cell-based; conditions: MDA-MB-435/LCC6 MDR1, read-out: IC50 ± SEM (nM) (n=3), MDA-MB-435/LCC6MDR1; multidrug-resistant melanoma cell line
[10] = tested on: Bovine brain tubulin; assay: In vitro tubulin polymerization assay; format: biochemical; conditions: 10 µM
Description: (§2) In Vitro Tubulin Polymerization Assay.
as §2
In vitro microtubule polymerization assay.

[11] = tested on: PPC-1
[12] = tested on: DU 145
[13] = tested on: melanoma cell lines (A375, WM-164, B16-F1) and prostate cancer cell lines (LNCaP, DU 145, PC-3, PPC-1); assay: SRB cytotoxicity, melanoma and prostate cell panel (averages); format: cell-based
Description: as §1

[14] = tested on: LNCaP
[15] = tested on: NCI/ADR-RES; assay: SRB growth inhibition, P-gp over-expressing MDR line; format: cell-based, human; conditions: for Resistance factor: 5760 min
[16] = tested on: OVCAR-8; assay: SRB growth inhibition, MDR model parent line; format: cell-based, human
[17] = tested on: PC-3 prostate tumor xenograft; assay: In vivo antitumor efficacy, PC-3 xenograft; design: species or system mouse; conditions: Prostate (PC-3) xenograft, 21 days
Description: (§3) PC-3 and A375 tumor xenograft studies.
(§4) In vivo antitumor activity [tumor growth inhibition (% T/C), tumor growth delay (T-C value), and tumor cell kill (total log cell kill)].

[18] = tested on: A375 human melanoma xenograft; assay: In vivo antitumor efficacy, A375 melanoma xenograft; design: species or system mouse; conditions: Melanoma (A375) xenograft; for % T/C: 34 days
Procedure: DTIC at 60 mg/kg was used as a positive control again.
as §3, §4

[19] = read-out: IC50 ± SEM (nM) Du 145
[20] = Homo sapiens, PC-3, 96 h, read-out: IC50 ± SEM (nM), PC-3
[21] = Homo sapiens, A-375, A375 melanoma cells, 48 h, SRB, read-out: IC50 ± SEM (nM) A375
[22] = read-out: IC50 ± SEM (nM) PC-3, Table 21, Prostate, n = 3
[23] = Table 21, Melanoma, n = 3, read-out: IC50 ± SEM (nM) B16-F1
[24] = Table 21, Ovarian, n = 3, read-out: IC50 ± SEM (nM) OVCAR-8
[25] = Table 21, Melanoma, n = 3, read-out: IC50 ± SEM (nM) A375
[26] = read-out: IC50 ± SEM (nM) LNCaP, Table 21, Prostate, n = 3
[27] = read-out: IC50 ± SEM (nM) PPC-1, Table 21, Prostate, n = 3
[28] = read-out: IC50 ± SEM (nM) Dn-145, Table 21, Prostate, n = 3

Structure (SMILES): O=C(c1ccc(F)cc1)c1cn(S(=O)(=O)c2ccccc2)c(-c2ccc(Cl)cc2)n1 [11fb, (2-(4-chlorophenyl)-1-(phenylsulfonyl)-1H-imidazol-4-yl)(4-fluorophenyl)methanone]
- IC50 [1]: 48 ± 1 nM
- IC50 [2, 19]: 64 ± 1 nM
- IC50 [3, 20]: 76 ± 2 nM
- IC50 [4]: 50 nM
- IC50 ([5]; Mus musculus, B16-F1, read-out: IC50 ± SEM (nM) (n=3), B16-F1, Table 14A): 107 ± 12 nM
- IC50 ([5]; Mus musculus, B16-F1 melanoma cells, 48 h, SRB, read-out: IC50 ± SEM (nM) B16-F1): 107 ± 12 nM
- IC50 [6]: 54 ± 1 nM
- IC50 ([7]; Homo sapiens, A-375, read-out: IC50 ± SEM (nM) (n=3), A375, Table 14A): 88 ± 9 nM
- IC50 [7, 21]: 88 ± 9 nM
- IC50 ([8]; Homo sapiens, WM164, read-out: IC50 ± SEM (nM) (n=3), WM-164, Table 14A): 74 ± 8 nM
- IC50 ([8]; Homo sapiens, WM164 melanoma cells, 48 h, SRB, read-out: IC50 ± SEM (nM) WM164): 70 ± 6 nM
- IC50 [9]: 35 nM

Structure (SMILES): Cc1ccc(-c2nc(C(=O)c3ccc(F)cc3)c[nH]2)cc1 [12db, (4-fluorophenyl)(2-(p-tolyl)-1H-imidazol-4-yl)methanone]
- IC50 [1]: 45 ± 2 nM
- IC50 [2, 19]: 78 ± 5 nM
- IC50 [3, 20]: 56 ± 3 nM
- IC50 [6]: 34 ± 1 nM
- IC50 [7, 21]: 143 ± 13 nM
- inhibition of tubulin polymerization ([10]; 15 min, Figure 22): ~80%

Structure (SMILES): O=C(c1ccc(F)cc1)c1c[nH]c(-c2ccc(O)cc2)n1 [12kb]
- IC50 ([11]; read-out: IC50 ± SEM (nM) PPC-1, PPC-1 prostate cancer cells, 96 h, SRB): > 10000 nM
- IC50 ([12]; read-out: IC50 ± SEM (nM) Du 145, Du 145 prostate cancer cells, 96 h, SRB): > 10000 nM
- IC50 ([3]; read-out: IC50 ± SEM (nM) PC-3, PC-3 prostate cancer cells, 96 h, SRB): > 10000 nM
- IC50 ([5]; B16-F1 melanoma cells, 48 h, SRB, read-out: IC50 ± SEM (nM) B16-F1): > 10000 nM
- IC50 ([13]; ABI compounds, Tables 11-13, read-out: IC50 (average over cell lines)): 33 µM
- IC50 ([14]; read-out: IC50 ± SEM (nM) LNCaP, LNCaP prostate cancer cells, 96 h, SRB): 10000 nM
- IC50 ([8]; WM164 melanoma cells, 48 h, SRB, read-out: IC50 ± SEM (nM) WM164): > 10000 nM

Structure (SMILES): COc1cc(C(=O)c2csc(-c3ccc4[nH]ccc4c3)n2)cc(OC)c1OC [66a]
- IC50 [1]: 10 nM
- IC50 ([2]; read-out: IC50 ± SEM (nM), DU 145): 13 nM
- IC50 [3, 20]: 7 nM
- IC50 ([5]; Mus musculus, B16-F1, read-out: IC50 ± SEM (nM), B16-F1): 25 ± 13 nM
- IC50 ([15]; Homo sapiens, NCI/ADR-RES, P-gp over-expressed MDR cell line, Table 5A, read-out: IC50 (nM), NCI/ADR-RES): 4 ± 2 nM
- Resistance factor ([15]; NCI/ADR-RES vs OVCAR-8): 0.4
- IC50 ([16]; Homo sapiens, OVCAR-8, Table 5A, read-out: IC50 (nM), OVCAR-8): 10 ± 3 nM
- IC50 [6]: 8 nM
- IC50 ([7]; Homo sapiens, A-375, 96 h, read-out: IC50 ± SEM (nM), A375): 8 ± 1 nM
- IC50 ([13]; Prostate cell, summary of Tables 2, 3, 21, read-out: IC50 range over tested melanoma and prostate cell lines): 0.007 to 0.025 µM
- tubulin polymerization inhibited ([10]; 20 min incubation, compared to vehicle): 81%

Structure (SMILES): COc1cc(C(=O)c2csc(-c3ccc(F)cc3)n2)cc(OC)c1OC [SMART-F]
- IC50 [3, 22]: 13 ± 1 nM
- IC50 [5, 23]: 43 ± 21 nM
- % T/C ([17]; 5 mg/kg i.p.): 21%
- % T/C ([17]; 15 mg/kg i.p.): 24%
- IC50 [16, 24]: 34 ± 3 nM
- Median time to reach 600 mm^3. ([18]; 15 mg/kg i.p.): 29 days
- % T/C ([18]; 15 mg/kg i.p.): 28%
- Total log cell kill ([18]; 15 mg/kg i.p., doubling time 4.6 d): 0.7
- IC50 [7, 25]: 33 ± 14 nM
- IC50 [14, 26]: 6 ± 1 nM

Structure (SMILES): COc1cc(C(=O)c2csc(-c3ccccc3)n2)cc(OC)c1OC [SMART-H]
- IC50 [11, 27]: 43 ± 5 nM
- IC50 [12, 28]: 71 ± 4 nM
- IC50 [3, 22]: 21 ± 1 nM
- IC50 [5, 23]: 55 ± 5 nM
- % T/C ([17]; 5 mg/kg i.p.): 29%
- % T/C ([17]; 15 mg/kg i.p.): 4%
- IC50 [16, 24]: 35 ± 2 nM
- Median time to reach 600 mm^3. ([18]; 20 mg/kg i.p.): 28 days
- % T/C ([18]; 20 mg/kg i.p.): 30%
- IC50 [7, 25]: 28 ± 5 nM
- IC50 [14, 26]: 28 ± 4 nM

Structure (SMILES): COc1cc(C(=O)c2csc(-c3ccc(O)cc3)n2)cc(OC)c1OC [SMART-OH]
- IC50 [11, 27]: 76 ± 2 nM
- IC50 [12, 28]: 116 ± 14 nM
- IC50 [3, 22]: 87 ± 5 nM
- IC50 [5, 23]: 113 ± 6 nM
- Resistance factor ([15]; NCI/ADR-RES relative to parent OVCAR-8): 0.4
- IC50 ([15]; Table 21, Ovarian, n = 3, read-out: IC50 ± SEM (nM) NCI/ADR-RES): 45 ± 5 nM
- % T/C ([17]; 50 mg/kg i.p.): 34%
- IC50 [16, 24]: 110 ± 8 nM
- IC50 [7, 25]: 93 ± 11 nM
- IC50 [14, 26]: 103 ± 9 nM

Structure (SMILES): COc1cc(C(=O)c2csc(-c3ccccc3)n2)cc(OC)c1OCCN1C(=O)c2ccccc2C1=O [compound 20]
- IC50 ([11]; read-out: IC50 ±SEM (nM), PPC-1, Table 6): 73 nM
- IC50 ([12]; read-out: IC50 ±SEM (nM), DU 145, Table 6): 121 nM
- IC50 ([3]; read-out: IC50 ±SEM (nM), PC-3, Table 6): 73 nM
- IC50 ([5]; Table 6, read-out: IC50 ±SEM (nM), B16-F1): 42 nM
- IC50 ([7]; Table 6, read-out: IC50 ±SEM (nM), A375): 38 nM
- IC50 ([14]; read-out: IC50 ±SEM (nM), LNCaP, Table 6): 65 nM
